# Source: PMC4197335, “Cancer-Selective Targeting of the NF-κB Survival Pathway with GADD45β/MKK7 Inhibitors” (Cancer Cell, 2014)
# pIC50: −log10 of the molar value. Where two headings read alike, the source gives them in different places. Where a SMILES comes first, the peptide text is derived from it. [ ]: non-standard residue; d: D form. The star is where a group is joined. Benzoyl(3-OH,4-OMe) = COc1ccc(C(=O)*)cc1O; ClZ = O=C(OCc1ccccc1Cl)*; Cbz = O=C(OCc1ccccc1)*
# Molecular target: T1, GADD45β/MKK7 complex (Homo sapiens, UniProt O14733)
# T1 construct: Full-length human (h)MKK7 was expressed as a protein fused to an N-terminal GST tag (GST-MKK7); made in house
# T1 sequence (O14733 1-419): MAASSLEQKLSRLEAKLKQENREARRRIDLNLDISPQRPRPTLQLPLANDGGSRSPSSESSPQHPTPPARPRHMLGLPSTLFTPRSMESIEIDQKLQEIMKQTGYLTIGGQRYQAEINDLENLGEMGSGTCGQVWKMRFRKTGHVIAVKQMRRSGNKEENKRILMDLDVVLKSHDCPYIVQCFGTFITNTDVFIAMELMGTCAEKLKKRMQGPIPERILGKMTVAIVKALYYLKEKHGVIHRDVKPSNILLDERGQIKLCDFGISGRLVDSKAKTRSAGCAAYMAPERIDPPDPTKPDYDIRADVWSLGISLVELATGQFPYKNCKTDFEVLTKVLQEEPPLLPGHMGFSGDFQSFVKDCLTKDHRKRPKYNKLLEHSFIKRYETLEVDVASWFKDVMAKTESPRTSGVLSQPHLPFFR
# Experiment: ELISA GADD45β/MKK7 competition assay
# Assay type: binding
# From the text: Additional details are provided in Supplemental Experimental Procedures.
# (1:1,000) and the HRP chromogenic substrate, o -phenylenediamine (OPD). GST -coated wells wer e […]
# The ELISA competition screen used f or the isolation of antagonists of the GADD45β /MKK7 […]
# The library deconvolution strategy used for this screen was described previously […]
# General information about this type of screens can be found elsewhere […]
# Values were expressed as the percentage of inhibition of His6-hGADD45β binding to GST-hMKK7 relative to the binding measured in the absence of […]
# Dose-response, ELISA GADD45β /MKK7 competition assays were carried out under similar […]
# As part of the SAR analysis and lead optimization process, where appropriate, competitors were tested at a concentration up to 100 nM. In order to determine their stability in biolog ical f luids , peptides were incubated at the concentration of 10 µM in […]
# calculated using at least 7 concentrations of peptide and def ined as the mean concentration of peptide […]
# the absence of competitor. W here indicated, values were expressed as the percentage of inhibition of His 6 -hGADD45β binding to GST-hMKK7 relative to the binding measured in the absence of competitor.
# GST was used as a control in all the experiments. […]
# tetrapeptide used as negative control in some of the ELISA and cellular assays was as f ollows: z -DNC, z-T yr -Asp-His-Gln-NH 2 . […]
# [1] = Table S3, peptide at 10 nM, read-out: % inhibition (ELISA)
# [2] = Table S3, read-out: IC50 (ELISA)
# [3] = Table S4, values marked (#), peptide at 42 nM, read-out: % inhibition of (ELISA)
# [4] = Figure 3A, before preincubation with human serum, read-out: IC50
# [5] = Figure 3B, after a 48 hr preincubation with human serum, read-out: IC50
# [6] = Table S2, peptide at 42 nM, read-out: % inhibition (ELISA)
# [7] = Table S4, read-out: IC50s (ELISA)
# [8] = Table S4, values marked (##), peptide at 10 nM, read-out: % inhibition of (ELISA)
structure (smiles),measurement,setting,value
"COc1ccc(C(=O)N[C@H](Cc2ccc(O)cc2)C(=O)N[C@H](CC(=O)O)C(=O)N[C@H](Cc2c[nH]cn2)C(=O)N[C@H](Cc2ccccc2)C(N)=O)cc1O ({Benzoyl(3-OH,4-OMe)}-[dY][dD][dH][dF]-NH2)",inhibition at 0.01 µM,read-out: % inhibition (ELISA),81%
"COc1ccc(C(=O)N[C@H](Cc2ccc(O)cc2)C(=O)N[C@H](CC(=O)O)C(=O)N[C@H](Cc2c[nH]cn2)C(=O)N[C@H](CCC(N)=O)C(N)=O)cc1O ({Benzoyl(3-OH,4-OMe)}-[dY][dD][dH][dQ]-NH2)",inhibition at 0.01 µM,read-out: % inhibition (ELISA),7%
"COc1ccc(C(=O)N[C@H](Cc2ccc(O)cc2)C(=O)N[C@H](CCC(=O)O)C(=O)N[C@H](CCCNC(=N)N)C(=O)N[C@H](Cc2ccccc2)C(N)=O)cc1O ({Benzoyl(3-OH,4-OMe)}-[dY][dE][dR][dF]-NH2)",inhibition at 0.01 µM,read-out: % inhibition (ELISA),86%
NC(=O)[C@@H](Cc1ccccc1)NC(=O)[C@@H](Cc1c[nH]cn1)NC(=O)[C@@H](CC(=O)O)NC(=O)[C@@H](Cc1ccc(O)cc1)NC(=O)OCc1ccccc1Cl [2CI-z-YDHF-NH2] (ClZ-[dY][dD][dH][dF]-NH2),inhibition at 0.01 µM,[1],38%
same,pIC50,[2],< 8.00
NC(=O)CC[C@@H](NC(=O)[C@@H](Cc1c[nH]cn1)NC(=O)[C@@H](CC(=O)O)NC(=O)[C@@H](Cc1ccc(O)cc1)NC(=O)OCc1ccccc1Cl)C(N)=O [2CI-z-YDHQ-NH2] (ClZ-[dY][dD][dH][dQ]-NH2),inhibition at 0.01 µM,[1],40%
same,pIC50,[2],< 8.00
N=C(N)NCCC[C@@H](NC(=O)[C@@H](CCC(=O)O)NC(=O)[C@@H](Cc1ccc(O)cc1)NC(=O)OCc1ccccc1Cl)C(=O)N[C@H](Cc1ccccc1)C(N)=O [2CI-z-YERF-NH2] (ClZ-[dY][dE][dR][dF]-NH2),inhibition at 0.01 µM,[1],38%
same,pIC50,[2],< 8.00
CC(=O)NC(C)C(=O)NC(CCC(=O)O)C(=O)NC(CCCNC(=N)N)C(=O)NC(Cc1ccccc1)C(N)=O (centres unmarked) [Ac-AERF-NH2] (Ac-AERF-NH2; configuration not given here),inhibition at 0.042 µM,[3],7%
"CC(=O)N[C@H](Cc1ccc(O)cc1)C(=O)N[C@H](CC(=O)O)C(=O)N[C@H](Cc1c[nH]cn1)C(=O)N[C@H](Cc1ccccc1)C(N)=O [Ac-DTP1, Ac-Tyr-Asp-His-Phe-NH2]",pIC50,[4],9.72
same,pIC50,[5],9.70
"CC(=O)N[C@H](Cc1ccc(O)cc1)C(=O)N[C@H](CCC(=O)O)C(=O)N[C@H](CCCNC(=N)N)C(=O)N[C@H](Cc1ccccc1)C(N)=O [Ac-DTP2, Ac-Tyr-Glu-Arg-Phe-NH2]",pIC50,[4],9.66
same,pIC50,[5],9.66
"CC(=O)N[C@@H](Cc1ccc(O)cc1)C(=O)N[C@@H](CC(=O)O)C(=O)N[C@@H](Cc1c[nH]cn1)C(=O)N[C@@H](Cc1ccccc1)C(N)=O [Ac-LTP1, Ac-YDHF-NH2]",pIC50,[4],9.40
same,pIC50,[5],< 8.00
same,inhibition at 0.042 µM,[6],94%
"CC(=O)N[C@@H](Cc1ccc(O)cc1)C(=O)N[C@@H](CCC(=O)O)C(=O)N[C@@H](CCCNC(=N)N)C(=O)N[C@@H](Cc1ccccc1)C(N)=O [Ac-LTP2, Ac-YERF-NH2]",pIC50,[5],< 8.00
same,inhibition at 0.042 µM,[6],93%
same,pIC50,[7],9.40
CC(=O)N1CCCC1C(=O)NC(CCC(=O)O)C(=O)NC(CCCNC(=N)N)C(=O)NC(Cc1ccccc1)C(N)=O (centres unmarked) [Ac-PERF-NH2] (Ac-PERF-NH2; configuration not given here),inhibition at 0.01 µM,[8],24%
CC(=O)N[C@@H](Cc1c[nH]c2ccccc12)C(=O)N[C@@H](CC(=O)O)C(=O)N[C@@H](Cc1c[nH]cn1)C(=O)N[C@@H](Cc1ccccc1)C(N)=O [Ac-WDHF-NH2] (Ac-WDHF-NH2),inhibition at 0.042 µM,[6],28%
same,pIC50,[7],< 7.38
CC(=O)N[C@@H](Cc1c[nH]c2ccccc12)C(=O)N[C@@H](CC(=O)O)C(=O)N[C@@H](CCCCN)C(=O)N[C@@H](Cc1ccccc1)C(N)=O [Ac-WDKF-NH2] (Ac-WDKF-NH2),inhibition at 0.042 µM,[6],25%
CC(=O)N[C@@H](Cc1c[nH]c2ccccc12)C(=O)N[C@@H](CC(=O)O)C(=O)N[C@@H](CCCCN)C(=O)N[C@@H](Cc1c[nH]c2ccccc12)C(N)=O [Ac-WDKW-NH2] (Ac-WDKW-NH2),inhibition at 0.042 µM,[6],69%
same,pIC50,[7],> 7.38
CC(=O)N[C@@H](Cc1c[nH]c2ccccc12)C(=O)N[C@@H](CCC(=O)O)C(=O)N[C@@H](Cc1c[nH]cn1)C(=O)N[C@@H](Cc1c[nH]c2ccccc12)C(N)=O [Ac-WEHW-NH2] (Ac-WEHW-NH2),inhibition at 0.042 µM,[6],75%
same,pIC50,[7],> 7.38
CC(=O)N[C@@H](Cc1c[nH]c2ccccc12)C(=O)N[C@@H](CCC(=O)O)C(=O)N[C@@H](CCCCN)C(=O)N[C@@H](Cc1ccccc1)C(N)=O [Ac-WEKF-NH2] (Ac-WEKF-NH2),inhibition at 0.042 µM,[6],65%
same,pIC50,[7],> 7.38
CC(=O)N[C@@H](Cc1c[nH]c2ccccc12)C(=O)N[C@@H](CCC(=O)O)C(=O)N[C@@H](CCCCN)C(=O)N[C@@H](Cc1c[nH]c2ccccc12)C(N)=O [Ac-WEKW-NH2] (Ac-WEKW-NH2),inhibition at 0.042 µM,[6],58%
same,pIC50,[7],> 7.38
CC(=O)N[C@@H](Cc1c[nH]c2ccccc12)C(=O)N[C@@H](CCC(=O)O)C(=O)N[C@@H](CCCNC(=N)N)C(=O)N[C@@H](Cc1ccccc1)C(N)=O [Ac-WERF-NH2] (Ac-WERF-NH2),inhibition at 0.042 µM,[6],28%
same,pIC50,[7],< 7.38
CC(=O)N[C@@H](Cc1c[nH]c2ccccc12)C(=O)N[C@@H](CCC(=O)O)C(=O)N[C@@H](CCCNC(=N)N)C(=O)N[C@@H](Cc1c[nH]c2ccccc12)C(N)=O [Ac-WERW-NH2] (Ac-WERW-NH2),inhibition at 0.042 µM,[6],64%
same,pIC50,[7],> 7.38
same,inhibition at 0.042 µM,[3],69%
CC(=O)N[C@H](Cc1ccc(O)cc1)C(=O)N[C@H](C)C(=O)N[C@H](CCCNC(=N)N)C(=O)N[C@H](Cc1ccccc1)C(N)=O [Ac-YARF-NH2] (Ac-[dY][dA][dR][dF]-NH2),inhibition at 0.042 µM,read-out: % inhibition of (ELISA),17%
CC(=O)N[C@H](Cc1ccc(O)cc1)C(=O)N[C@H](CC(=O)O)C(=O)N[C@H](Cc1c[nH]cn1)C(=O)N[C@H](Cc1ccccc1)C(=O)N[C@H](CCCCNC(=O)OCc1ccccc1)C(N)=O [Ac-YDHFK(εZ)-NH2] (Ac-[dY][dD][dH][dF][dK](Cbz)-NH2),inhibition at 0.01 µM,[1],8%
same,pIC50,[2],< 8.00
CC(=O)N[C@H](Cc1ccc(O)cc1)C(=O)N[C@H](CC(=O)O)C(=O)N[C@H](Cc1c[nH]cn1)C(=O)N[C@H](CCC(N)=O)C(=O)N[C@H](CCCCNC(=O)OCc1ccccc1)C(N)=O [Ac-YDHQK(εZ)-NH2] (Ac-[dY][dD][dH][dQ][dK](Cbz)-NH2),inhibition at 0.01 µM,[1],2%
same,pIC50,[2],< 8.00
CC(=O)N[C@@H](Cc1ccc(O)cc1)C(=O)N[C@@H](CC(=O)O)C(=O)N[C@@H](CCCCN)C(=O)N[C@@H](Cc1c[nH]c2ccccc12)C(N)=O [Ac-YDKW-NH2] (Ac-YDKW-NH2),inhibition at 0.042 µM,[6],43%
same,pIC50,[7],< 8.00
CC(=O)N[C@H](Cc1ccc(O)cc1)C(=O)N[C@H](CCC(=O)O)C(=O)N[C@H](C)C(=O)N[C@H](Cc1ccccc1)C(N)=O [Ac-YEAF-NH2] (Ac-[dY][dE][dA][dF]-NH2),inhibition at 0.042 µM,[3],13%
CC(=O)N[C@@H](Cc1ccc(O)cc1)C(=O)N[C@@H](CCC(=O)O)C(=O)N[C@@H](Cc1c[nH]cn1)C(=O)N[C@@H](Cc1c[nH]c2ccccc12)C(N)=O [Ac-YEHW-NH2] (Ac-YEHW-NH2),inhibition at 0.042 µM,[6],64%
same,pIC50,[7],> 7.38
CC(=O)N[C@@H](Cc1ccc(O)cc1)C(=O)N[C@@H](CCC(=O)O)C(=O)N[C@@H](CCCCN)C(=O)N[C@@H](Cc1ccccc1)C(N)=O [Ac-YEKF-NH2] (Ac-YEKF-NH2),inhibition at 0.042 µM,[6],64%
same,pIC50,[7],> 7.38
CC(=O)N[C@@H](Cc1ccc(O)cc1)C(=O)N[C@@H](CCC(=O)O)C(=O)N[C@@H](CCCCN)C(=O)N[C@@H](Cc1c[nH]c2ccccc12)C(N)=O [Ac-YEKW-NH2] (Ac-YEKW-NH2),inhibition at 0.042 µM,[6],22%
same,pIC50,[7],< 7.38
CC(=O)N[C@H](Cc1ccc(O)cc1)C(=O)N[C@H](CCC(=O)O)C(=O)N1CCC[C@@H]1C(=O)N[C@H](Cc1ccccc1)C(N)=O [Ac-YEPF-NH2] (Ac-[dY][dE][dP][dF]-NH2),inhibition at 0.042 µM,[3],13%
CC(=O)N[C@H](Cc1ccc(O)cc1)C(=O)N[C@H](CCC(=O)O)C(=O)N[C@H](CCCNC(=N)N)C(=O)N[C@H](C)C(N)=O [Ac-YERA-NH2] (Ac-[dY][dE][dR][dA]-NH2),inhibition at 0.01 µM,[8],28%
